Source: ChEMBL document CHEMBL4052703, “Cyclic tetrapeptide HDAC inhibitors as potential therapeutics for spinal muscular atrophy: Screening with iPSC-derived neuronal cells” (Bioorg Med Chem Lett, 2017)
Calls of active or inactive are those of the source. The calls are words filed in the database; no cut-off is given here. Square brackets hold non-standard residues; d marks the D form. Peptide text beside a SMILES is read from it. * marks the point of attachment. 1Nal = N[C@@H](Cc1cccc2ccccc12)C(=O)O; Asu = N[C@@H](CCCCCC(=O)O)C(=O)O; β3hL = CC(C)C[C@H](N)CC(=O)O; Nva = CCC[C@H](N)C(=O)O; NHOH = ON*

Experiments:
Homo sapiens [1] = species: Homo sapiens; experiment: Increase in SMN2 mRNA expression in induced pluripotent stem cell derived from human GM03813 cells isolated from SMA patient homozygous for deletion of exons 7 and 8 in SMN1 gene and containing 3 SMN2 gene copies at 0.1 uM by PCR assay relative to untreated control
Homo sapiens [2] = species: Homo sapiens; experiment: Increase in SMN2 mRNA expression in induced pluripotent stem cell derived from human GM03813 cells isolated from SMA patient homozygous for deletion of exons 7 and 8 in SMN1 gene and containing 3 SMN2 gene copies at 1 uM by PCR assay relative to untreated control
Histone deacetylase 2 = Histone deacetylase 2 (Homo sapiens, UniProt Q92769); experiment: Inhibition of HDAC2 (unknown origin)
Sequence of Histone deacetylase 2 (Q92769 whole entry): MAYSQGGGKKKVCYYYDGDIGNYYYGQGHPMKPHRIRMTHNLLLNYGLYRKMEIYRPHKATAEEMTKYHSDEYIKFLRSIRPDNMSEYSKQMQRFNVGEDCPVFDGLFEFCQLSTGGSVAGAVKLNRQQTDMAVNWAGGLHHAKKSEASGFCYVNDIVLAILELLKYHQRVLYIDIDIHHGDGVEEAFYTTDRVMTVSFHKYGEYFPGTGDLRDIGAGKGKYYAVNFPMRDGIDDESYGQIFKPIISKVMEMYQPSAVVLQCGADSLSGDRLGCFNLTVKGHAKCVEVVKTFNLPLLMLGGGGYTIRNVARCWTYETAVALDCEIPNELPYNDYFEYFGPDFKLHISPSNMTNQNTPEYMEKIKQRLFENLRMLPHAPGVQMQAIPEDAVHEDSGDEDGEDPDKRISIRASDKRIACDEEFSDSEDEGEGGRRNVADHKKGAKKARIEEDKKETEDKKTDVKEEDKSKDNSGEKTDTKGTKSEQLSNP

Histone deacetylase 8 = target: T1, Histone deacetylase 8 (Homo sapiens, UniProt Q9BY41); experiment: Inhibition of HDAC8 (unknown origin)
T1 sequence (Q9BY41 whole entry): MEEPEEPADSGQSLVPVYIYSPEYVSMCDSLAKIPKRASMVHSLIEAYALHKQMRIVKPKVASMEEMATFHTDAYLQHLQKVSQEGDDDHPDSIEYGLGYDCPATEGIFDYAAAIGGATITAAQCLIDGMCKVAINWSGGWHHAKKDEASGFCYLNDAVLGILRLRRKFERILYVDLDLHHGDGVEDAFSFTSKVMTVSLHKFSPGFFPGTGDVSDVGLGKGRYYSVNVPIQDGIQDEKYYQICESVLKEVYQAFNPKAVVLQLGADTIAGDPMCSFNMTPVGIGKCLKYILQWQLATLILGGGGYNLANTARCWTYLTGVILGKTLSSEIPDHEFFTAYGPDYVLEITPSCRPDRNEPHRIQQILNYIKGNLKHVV

[3] = target: T2, Protein deacetylase HDAC6 (Homo sapiens, UniProt Q9UBN7); experiment: Inhibition of HDAC6 (unknown origin)
T2 sequence (Q9UBN7 whole entry): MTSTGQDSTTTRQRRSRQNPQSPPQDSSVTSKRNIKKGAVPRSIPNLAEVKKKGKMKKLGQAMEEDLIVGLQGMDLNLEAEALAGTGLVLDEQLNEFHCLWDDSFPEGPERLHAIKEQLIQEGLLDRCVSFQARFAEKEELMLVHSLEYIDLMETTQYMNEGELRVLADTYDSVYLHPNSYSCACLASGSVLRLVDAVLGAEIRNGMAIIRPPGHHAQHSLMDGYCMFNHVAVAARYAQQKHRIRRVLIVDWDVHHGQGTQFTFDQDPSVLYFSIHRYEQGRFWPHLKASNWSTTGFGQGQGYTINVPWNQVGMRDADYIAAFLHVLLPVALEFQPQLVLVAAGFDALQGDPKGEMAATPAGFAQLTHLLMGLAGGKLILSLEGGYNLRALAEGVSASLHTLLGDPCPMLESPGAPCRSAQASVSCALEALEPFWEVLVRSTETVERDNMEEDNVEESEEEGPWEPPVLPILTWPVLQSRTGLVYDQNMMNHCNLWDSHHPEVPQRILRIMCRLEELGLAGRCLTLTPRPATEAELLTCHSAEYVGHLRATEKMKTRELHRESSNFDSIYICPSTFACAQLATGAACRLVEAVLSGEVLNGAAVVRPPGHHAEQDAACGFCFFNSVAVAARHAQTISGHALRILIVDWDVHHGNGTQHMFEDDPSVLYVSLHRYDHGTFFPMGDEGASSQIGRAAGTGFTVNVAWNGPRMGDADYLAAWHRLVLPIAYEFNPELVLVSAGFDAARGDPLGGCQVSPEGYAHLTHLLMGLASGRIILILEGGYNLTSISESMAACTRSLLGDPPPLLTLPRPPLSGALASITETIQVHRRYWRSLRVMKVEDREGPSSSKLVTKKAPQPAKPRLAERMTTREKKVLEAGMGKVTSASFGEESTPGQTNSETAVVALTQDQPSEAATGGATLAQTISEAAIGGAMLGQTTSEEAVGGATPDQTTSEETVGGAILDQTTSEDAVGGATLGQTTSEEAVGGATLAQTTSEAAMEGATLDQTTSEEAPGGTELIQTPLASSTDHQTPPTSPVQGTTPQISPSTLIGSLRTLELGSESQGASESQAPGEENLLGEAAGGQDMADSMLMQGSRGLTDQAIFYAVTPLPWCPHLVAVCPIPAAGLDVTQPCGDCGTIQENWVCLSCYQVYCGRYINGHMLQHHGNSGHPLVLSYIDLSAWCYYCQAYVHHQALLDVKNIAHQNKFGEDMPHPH

Homo sapiens [4] = species: Homo sapiens; experiment: Increase in SMN2 mRNA expression in induced pluripotent stem cell derived from human GM03813 cells isolated from SMA patient homozygous for deletion of exons 7 and 8 in SMN1 gene and containing 3 SMN2 gene copies at 0.1 to 5 uM by PCR assay relative to untreated control
[5] = Toxicity against induced pluripotent stem cell derived from human GM03813 cells isolated from SMA patient homozygous for deletion of exons 7 and 8 in SMN1 gene and containing 3 SMN2 gene copies assessed as reduction in SMN2 protein level at 10 uM; assay type: cell-based; conditions: induced pluripotent stem cell-derived neuron
Homo sapiens [6] = species: Homo sapiens; experiment: Increase in […] in induced pluripotent stem cell derived from human GM03813 cells isolated from SMA patient homozygous for deletion of exons 7 and 8 in SMN1 gene and containing 3 SMN2 gene copies assessed as increase in SMN protein aggregates (Gems) at 5 uM incubated for 48 hrs by confocal microscopy
Histone deacetylase 3 = Histone deacetylase 3 (Homo sapiens, UniProt O15379); experiment: Inhibition of HDAC3 (unknown origin)
Sequence of Histone deacetylase 3 (O15379 whole entry): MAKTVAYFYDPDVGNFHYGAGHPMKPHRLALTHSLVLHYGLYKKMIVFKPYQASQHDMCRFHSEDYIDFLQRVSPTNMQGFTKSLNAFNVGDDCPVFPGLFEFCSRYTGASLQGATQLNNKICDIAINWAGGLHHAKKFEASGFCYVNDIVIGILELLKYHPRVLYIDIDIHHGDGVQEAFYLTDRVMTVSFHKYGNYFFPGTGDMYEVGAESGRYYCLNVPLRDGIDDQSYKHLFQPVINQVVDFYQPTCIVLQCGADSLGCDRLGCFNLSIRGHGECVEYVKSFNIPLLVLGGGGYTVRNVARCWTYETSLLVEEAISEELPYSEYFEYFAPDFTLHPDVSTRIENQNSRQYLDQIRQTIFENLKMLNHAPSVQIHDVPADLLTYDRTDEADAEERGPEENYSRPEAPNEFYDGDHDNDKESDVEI

fold change (FC) (Homo sapiens [1]) | fold change (FC) (Homo sapiens [2]) | IC50 (Histone deacetylase 2) | SMILES | other results
1 | 0.6 to 1.1 |  | CC(C)C[C@H]1CC(=O)N[C@@H](CCCCN)C(=O)N[C@@H](CCCCCC(=O)O)C(=O)N[C@@H](Cc2cccc3ccccc23)C(=O)N1 (cyclo([Asu][1Nal][β3hL]K)) | 
1 to 1.4 | 1.2 to 2 | 0.04 µM | CCC(=O)CCCCC[C@@H]1NC(=O)[C@@H]2CCCN2C(=O)C[C@H](CC(C)C)NC(=O)[C@H](Cc2c[nH]c3ccccc23)NC1=O | IC50 (Histone deacetylase 8): 1.5 µM
 | 0.6 to 0.8 |  | CCC(=O)CCCCC[C@@H]1NC(=O)[C@H](C)NC(=O)C[C@H](CC(C)C)NC(=O)[C@H](Cc2cccc3ccccc23)NC1=O | 
 | 1.5 to 1.8 |  | CCC[C@@H]1NC(=O)[C@H](C)NC(=O)C[C@H](CC(C)C)NC(=O)[C@H](Cc2cn(CN(C)C)c3ccccc23)NC1=O | 
1.2 to 1.3 | 2.1 to 2.4 | 0.032 µM | CC(C)C[C@H]1CC(=O)N[C@@H](C)C(=O)N[C@@H](CCCCCC(=O)C(F)(F)F)C(=O)N[C@@H](Cc2c[nH]c3ccccc23)C(=O)N1 | IC50 [3]: 2.8 µM
 | 0.7 to 0.8 | 1.58 µM | CCC[C@@H]1NC(=O)[C@H](C)NC(=O)C[C@H](CC(C)C)NC(=O)[C@H](Cc2c[nH]c3ccccc23)NC1=O (cyclo(A[Nva]W[β3hL])) | IC50 (Histone deacetylase 3): 1.44 µM
1 to 1.5 | 2.7 to 3.6 |  | CC(C)C[C@H]1CC(=O)N[C@@H](Cc2ccccc2)C(=O)N[C@@H](CCCCCC(=O)NO)C(=O)N[C@@H](Cc2c[nH]c3ccccc23)C(=O)N1 (cyclo([Asu](NHOH)W[β3hL]F)) | 
0.9 | 0.9 to 1.1 |  | CCC(=O)CCCCC[C@@H]1NC(=O)[C@@H](C)n2nncc2[C@H](CC(C)C)NC(=O)[C@H](Cc2c[nH]c3ccccc23)NC1=O | IC50 (Histone deacetylase 8): 0.11 µM
0.6 to 1 | 0.8 to 1.4 |  | CCC(=O)CCCCC[C@@H]1NC(=O)[C@H](Cc2ccccc2)NC(=O)C[C@H](CC(C)C)NC(=O)[C@H](Cc2c[nH]c3ccccc23)NC1=O | 

SMILES | fold change (FC) (Homo sapiens [1]) | fold change (FC) (Homo sapiens [2]) | IC50 (Histone deacetylase 2) | other results
CCC(=O)CCCCC[C@@H]1NC(=O)[C@H](CCCCNC(C)=O)NC(=O)C[C@H](CC(C)C)NC(=O)[C@H](Cc2c[nH]c3ccccc23)NC1=O | 1 to 1.5 | 2.7 to 3.2 |  | IC50 [3]: > 10 µM; Activity (Homo sapiens [4]): Dose-dependent effect; Activity [5]: Toxic; Activity (Homo sapiens [6]): Active
CC(C)C[C@H]1CC(=O)N[C@@H](C)C(=O)N[C@@H](CCCCCC(=O)NO)C(=O)N[C@@H](Cc2c[nH]c3ccccc23)C(=O)N1 (cyclo([Asu](NHOH)W[β3hL]A)) | 1.4 to 2.2 | 2 to 3 | 0.005 µM | 
CC(C)C[C@H]1CC(=O)N[C@@H](C)C(=O)N[C@@H](CCCCCC(=O)O)C(=O)N[C@@H](Cc2cccc3ccccc23)C(=O)N1 (cyclo([Asu][1Nal][β3hL]A)) | 1.1 to 1.6 | 1.4 to 1.5 |  | 
